Assays:
Format in all cases: in vivo
[1] = test system: Setaria faberi (SETFA); test: Test 1A glasshouse assay for herbicidal activity, post-emergence; conditions: 312 h, evaluated after 13 days, read-out: percentage phytotoxicity SETFA
Method in brief: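 Glasshouse spray test with visual phytotoxicity scoring (0–100%) after 13 days. Application timing: 1 day after sowing or after 8 days' cultivation, in 0.5% Tween 20 acetone/water.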

[2] = test system: Beta vulgaris (BEAVA, sugar beet); test: Test 1B glasshouse assay for herbicidal activity, pre-emergence; conditions: 480 h, 500 g/ha, 20 DAA, read-out: percentage phytotoxicity BEAVA
Procedure: (§1) Seeds of a variety of monocotyledonous and dicotyledonous test plants are sown in standard soil in pots. The plants are cultivated for one day (for pre-emergence) or for about 12 days (range=10-13 days) (for post-emergence) under controlled conditions in a glasshouse (warm climate species at 24/18° C., cool climate species at 20/16° C., both at day/night; 16 hours light; 65% humidity).
(§2) An “instant formulation”, known as the “IF50”, containing 50 g/liter (i.e. 5% w/v) of the “technical” (i.e. unformulated) active ingredient is prepared by dissolving the active ingredient in a mixture of organic solvents and emulsifier, details of which are provided in the Table below. This IF50 is then mixed with a small, variable amount of acetone to aid dissolution, before addition of a 0.2% v/v aqueous solution of the adjuvant X-77 (which is a mixture of alkyl aryl polyoxyethylene glycols and free fatty acids in isopropanol, CAS Registry number 11097-66-8), as the aqueous diluent, to form an aqueous spray solution which contains a predetermined concentration of the active ingredient (which varies depending on the application rate of the active ingredient to the plants) and 0.2% v/v of the adjuvant X-77. This aqueous spray solution is then sprayed onto the plants, after one day's cultivation (for pre-emergence) or after about 12 days' cultivation (for post-emergence).
(§3) The test plants are then grown on, in a glasshouse (greenhouse) under controlled conditions (at either 24/18° C. or 20/16° C. (day/night) as mentioned above; 16 hours light; 65% humidity) and are watered twice daily. Either 15 days after application of the herbicide (15 DAA) (for post-emergence), or 20 days after application of the herbicide (20 DAA) (for pre-emergence), the test plants are evaluated visually, and an assessed percentage phytotoxicity score is given for each herbicidal application on each plant species (where 100%=total damage to plant; 0%=no damage to plant).
(§4) Cool climate crop plants: Triticum aestivum (TRZAW, winter wheat), Brassica napus (BRSNN, rape, also called oilseed rape or rapeseed), Beta vulgaris (BEAVA, sugar beet).

[3] = test system: Brassica napus (BRSNN, rape); test: as above; conditions: 480 h, 500 g/ha, 20 DAA, read-out: percentage phytotoxicity BRSNN
Procedure: as §1, §2, §3, §4

[4] = test system: Triticum aestivum (TRZAW, winter wheat); test: as above; conditions: 480 h, 500 g/ha, 20 DAA, read-out: percentage phytotoxicity TRZAW
Procedure: as §1, §2, §3, §4

[5] = test system: Glycine max (GLXMA, soybean); test: as above; conditions: 480 h, 500 g/ha, 20 DAA, read-out: percentage phytotoxicity GLXMA
Procedure: as §1, §2, §3
(§5) Warm climate crop plants: Glycine max (GLXMA, soybean).

[6] = test system: Beta vulgaris (BEAVA, sugar beet); test: Test 1B glasshouse assay for herbicidal activity, post-emergence; conditions: 360 h
Procedure: as §1, §2, §3, §4

[7] = test system: Brassica napus (BRSNN, rape); test: as above; conditions: 360 h
Procedure: as §1, §2, §3, §4

[8] = test system: Triticum aestivum (TRZAW, winter wheat); test: as above; conditions: 360 h
Procedure: as §1, §2, §3, §4

[9] = test system: Glycine max (GLXMA, soybean); test: as above; conditions: 360 h
Procedure: as §1, §2, §3, §5

[10] = test system: Alopecurus myosuroides (ALOMY); test: as above; conditions: 360 h
Procedure: as §1, §2, §3
(§6) Cool climate (“cool season”) grassy monocotyledonous weeds: Alopecurus myosuroides (ALOMY), Avena fatua (AVEFA), Lolium perenne (LOLPE).

[11] = test system: Avena fatua (AVEFA); test: as above; conditions: 360 h
Procedure: as §1, §2, §3, §6

[12] = test system: Lolium perenne (LOLPE); test: as above; conditions: 360 h
Procedure: as §1, §2, §3, §6

[13] = test system: Digitaria sanguinalis (DIGSA); test: as above; conditions: 360 h
Procedure: as §1, §2, §3
(§7) Warm climate (“warm season”) grassy monocotyledonous weeds: Setaria faberi (SETFA), SORVU (Sorghum bicolor (L.) Moench ssp. Bicolor, or Sorghum vulgare Pers.), Digitaria sanguinalis (DIGSA), Echinochloa crus-galli (ECHCG), and Brachiaria plantaginea (BRAPL).

[14] = test system: SORVU (Sorghum bicolor (L.) Moench ssp. Bicolor, or Sorghum vulgare Pers.); test: as above; conditions: 360 h
Procedure: as §1, §2, §3, §7

[15] = test system: Setaria faberi (SETFA); test: as above; conditions: 360 h
Procedure: as §1, §2, §3, §7

[16] = test system: Echinochloa crus-galli (ECHCG); test: as above; conditions: Echinochloa crus-galli
Procedure: as §1, §2, §3, §7
Note: The herbicidal activity data (e.g. post-emergence) shown above in Biological Example 1B for Comparator compounds X-9 and X-10 is thought likely to have been measured some years ago, probably using a variant of the above-described test method. Also, for the post-emergence activity of X-9 and X-10 it is not currently known exactly how many days after application of the herbicide the phytotoxicity on the plants was measured.

CC#Cc1cc(C)c(C2C(=O)C3CCC(C3)C2=O)c(C)c1 (centres unmarked) [Compound A-5]
pest or weed control at 30 g/ha ([1]; 30 g/ha): 70% | pest or weed control at 250 g/ha ([1]; 250 g/ha): 100% | plant injury at 500 g/ha [2]: 0% | plant injury at 500 g/ha [3]: 90% | plant injury at 500 g/ha [4]: 20% | plant injury at 500 g/ha [5]: 0% | plant injury at 30 g/ha ([6]; 30 g/ha application rate): 40% | plant injury at 60 g/ha ([6]; 60 g/ha application rate): 40% | plant injury at 125 g/ha ([6]; 125 g/ha application rate): 30% | plant injury at 500 g/ha ([6]; 500 g/ha application rate): 30% | plant injury at 30 g/ha ([7]; 30 g/ha application rate): 70% | plant injury at 60 g/ha ([7]; 60 g/ha application rate): 70% | plant injury at 125 g/ha ([7]; 125 g/ha application rate): 80% | plant injury at 500 g/ha ([7]; 500 g/ha application rate): 80% | plant injury at 30 g/ha ([8]; 30 g/ha application rate): 30% | plant injury at 60 g/ha ([8]; 60 g/ha application rate): 30% | plant injury at 125 g/ha ([8]; 125 g/ha application rate): 70% | plant injury at 500 g/ha ([8]; 500 g/ha application rate): 80% | plant injury at 30 g/ha ([9]; 30 g/ha application rate): 10% | plant injury at 60 g/ha ([9]; 60 g/ha application rate): 20% | plant injury at 125 g/ha ([9]; 125 g/ha application rate): 30% | plant injury at 500 g/ha ([9]; 500 g/ha application rate): 40% | pest or weed control at 30 g/ha ([10]; 30 g/ha application rate): 70% | pest or weed control at 60 g/ha ([10]; 60 g/ha application rate): 80% | pest or weed control at 125 g/ha ([10]; 125 g/ha application rate): 80% | pest or weed control at 500 g/ha ([10]; 500 g/ha application rate): 90% | pest or weed control at 30 g/ha ([11]; 30 g/ha application rate): 30% | pest or weed control at 60 g/ha ([11]; 60 g/ha application rate): 30% | pest or weed control at 125 g/ha ([11]; 125 g/ha application rate): 80% | pest or weed control at 500 g/ha ([11]; 500 g/ha application rate): 80% | pest or weed control at 30 g/ha ([12]; 30 g/ha application rate): 30% | pest or weed control at 60 g/ha ([12]; 60 g/ha application rate): 70% | pest or weed control at 125 g/ha ([12]; 125 g/ha application rate): 80% | pest or weed control at 500 g/ha ([12]; 500 g/ha application rate): 80% | pest or weed control at 30 g/ha ([13]; 30 g/ha application rate): 90% | pest or weed control at 60 g/ha ([13]; 60 g/ha application rate): 100% | pest or weed control at 125 g/ha ([13]; 125 g/ha application rate): 100% | pest or weed control at 500 g/ha ([13]; 500 g/ha application rate): 100% | pest or weed control at 30 g/ha ([14]; 30 g/ha application rate): 70% | pest or weed control at 60 g/ha ([14]; 60 g/ha application rate): 80% | pest or weed control at 125 g/ha ([14]; 125 g/ha application rate): 100% | pest or weed control at 500 g/ha ([14]; 500 g/ha application rate): 100% | pest or weed control at 30 g/ha ([15]; 30 g/ha application rate): 80% | pest or weed control at 60 g/ha ([15]; 60 g/ha application rate): 90% | pest or weed control at 125 g/ha ([15]; 125 g/ha application rate): 100% | pest or weed control at 500 g/ha ([15]; 500 g/ha application rate): 100% | pest or weed control at 30 g/ha ([16]; 30 g/ha application rate): 100% | pest or weed control at 60 g/ha ([16]; 60 g/ha application rate): 100% | pest or weed control at 125 g/ha ([16]; 125 g/ha application rate): 100% | pest or weed control at 500 g/ha ([16]; 500 g/ha application rate): 100%

From patent US9615577B2, “Herbicidally active cyclic dione compounds, or derivatives therefor, substituted by a phenyl which has an alkynyl-containing substituent” (Syngenta Limited, priority 2012, dated 2017)
